Measured values as given in ChEMBL document CHEMBL1268881, “Peripheral but crucial: a hydrophobic pocket (Tyr(706), Leu(337), and Met(336)) for potent and selective inhibition of neuronal nitric oxide synthase” (Bioorg Med Chem Lett, 2010).

Assays:
Nitric oxide synthase 3 = target: T1, Nitric oxide synthase 3 (Bos taurus, UniProt P29473)
T1 sequence (P29473 whole entry): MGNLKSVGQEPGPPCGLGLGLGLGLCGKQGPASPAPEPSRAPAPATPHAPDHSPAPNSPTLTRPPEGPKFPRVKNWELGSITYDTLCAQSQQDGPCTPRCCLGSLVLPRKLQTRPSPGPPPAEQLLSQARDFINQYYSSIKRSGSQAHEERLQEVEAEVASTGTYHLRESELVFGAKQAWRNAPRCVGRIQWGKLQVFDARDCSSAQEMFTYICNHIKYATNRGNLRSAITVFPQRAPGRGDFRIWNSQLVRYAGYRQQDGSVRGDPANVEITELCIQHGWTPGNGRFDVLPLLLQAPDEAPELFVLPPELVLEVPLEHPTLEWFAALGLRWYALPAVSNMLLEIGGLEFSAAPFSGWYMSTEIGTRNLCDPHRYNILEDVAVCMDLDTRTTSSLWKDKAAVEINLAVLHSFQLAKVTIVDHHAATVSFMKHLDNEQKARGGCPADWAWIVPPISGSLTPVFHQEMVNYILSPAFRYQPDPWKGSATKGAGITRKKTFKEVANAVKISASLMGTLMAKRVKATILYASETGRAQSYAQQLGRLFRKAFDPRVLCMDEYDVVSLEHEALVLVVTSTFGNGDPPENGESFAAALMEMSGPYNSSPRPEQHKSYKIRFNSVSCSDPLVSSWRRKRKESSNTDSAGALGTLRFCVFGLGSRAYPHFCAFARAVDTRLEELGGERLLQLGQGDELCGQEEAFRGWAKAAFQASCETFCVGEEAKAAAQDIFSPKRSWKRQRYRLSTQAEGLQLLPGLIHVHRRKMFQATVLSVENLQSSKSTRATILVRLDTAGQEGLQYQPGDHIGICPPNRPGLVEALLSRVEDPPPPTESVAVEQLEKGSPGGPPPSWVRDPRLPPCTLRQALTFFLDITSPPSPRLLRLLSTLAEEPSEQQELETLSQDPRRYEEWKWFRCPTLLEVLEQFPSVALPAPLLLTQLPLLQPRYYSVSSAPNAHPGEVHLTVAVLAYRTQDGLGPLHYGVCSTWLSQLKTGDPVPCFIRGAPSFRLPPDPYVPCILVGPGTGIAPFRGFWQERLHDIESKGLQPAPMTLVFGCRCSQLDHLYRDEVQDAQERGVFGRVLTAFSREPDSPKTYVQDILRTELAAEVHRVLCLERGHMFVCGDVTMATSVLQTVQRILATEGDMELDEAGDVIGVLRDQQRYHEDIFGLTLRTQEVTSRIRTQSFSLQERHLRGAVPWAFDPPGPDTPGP
Description: Inhibition of bovine eNOS expressed in Escherichia coli assessed as inhibition of nitric oxide formation by hemoglobin capture assay

[1] = target: T2, Nitric oxide synthase, inducible (Mus musculus, UniProt P29477); experiment: Inhibition of mouse iNOS expressed in Escherichia coli assessed as inhibition of nitric oxide formation by hemoglobin capture assay
T2 sequence (P29477 whole entry): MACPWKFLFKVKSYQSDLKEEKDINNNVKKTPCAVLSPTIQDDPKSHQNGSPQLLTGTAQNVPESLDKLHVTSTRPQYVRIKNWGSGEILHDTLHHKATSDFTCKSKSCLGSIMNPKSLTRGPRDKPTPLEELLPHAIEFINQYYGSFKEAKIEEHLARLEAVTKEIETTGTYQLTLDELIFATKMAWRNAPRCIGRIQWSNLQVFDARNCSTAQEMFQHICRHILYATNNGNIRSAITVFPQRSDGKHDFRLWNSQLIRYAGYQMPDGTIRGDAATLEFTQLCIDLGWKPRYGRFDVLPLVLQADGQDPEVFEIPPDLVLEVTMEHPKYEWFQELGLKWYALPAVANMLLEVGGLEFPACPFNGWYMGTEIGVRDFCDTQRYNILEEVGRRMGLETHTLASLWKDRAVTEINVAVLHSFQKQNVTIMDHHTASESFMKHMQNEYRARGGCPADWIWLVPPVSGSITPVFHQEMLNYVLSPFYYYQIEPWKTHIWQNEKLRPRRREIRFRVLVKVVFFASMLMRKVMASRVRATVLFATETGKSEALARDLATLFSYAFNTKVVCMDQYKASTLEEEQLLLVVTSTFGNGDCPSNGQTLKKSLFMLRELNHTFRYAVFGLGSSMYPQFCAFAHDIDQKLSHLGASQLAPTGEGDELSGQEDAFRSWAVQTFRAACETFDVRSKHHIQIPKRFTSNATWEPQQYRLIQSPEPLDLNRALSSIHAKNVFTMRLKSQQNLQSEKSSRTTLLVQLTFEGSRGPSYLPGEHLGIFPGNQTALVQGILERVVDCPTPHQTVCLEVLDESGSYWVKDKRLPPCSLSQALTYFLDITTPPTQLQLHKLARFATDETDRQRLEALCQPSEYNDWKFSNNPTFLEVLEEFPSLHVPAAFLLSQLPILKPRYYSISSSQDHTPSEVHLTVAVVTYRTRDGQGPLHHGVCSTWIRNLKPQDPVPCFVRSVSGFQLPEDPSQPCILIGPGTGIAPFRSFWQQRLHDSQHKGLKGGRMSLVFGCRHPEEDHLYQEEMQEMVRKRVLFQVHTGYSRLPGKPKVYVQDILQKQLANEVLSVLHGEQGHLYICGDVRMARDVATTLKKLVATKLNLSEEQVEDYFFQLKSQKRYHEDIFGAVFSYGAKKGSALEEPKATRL

Nitric oxide synthase 1 [2] = target: Nitric oxide synthase 1 (Homo sapiens, UniProt P29475); experiment: Inhibition of human nNOS expressed in Escherichia coli assessed as inhibition of nitric oxide formation by hemoglobin capture assay
Nitric oxide synthase 1 [3] = target: Nitric oxide synthase 1 (Rattus norvegicus, UniProt P29476); experiment: Inhibition of rat nNOS expressed in Escherichia coli assessed as inhibition of nitric oxide formation by hemoglobin capture assay
Nitric oxide synthase 1 (Rattus norvegicus, UniProt P29476), sequence (P29476 whole entry): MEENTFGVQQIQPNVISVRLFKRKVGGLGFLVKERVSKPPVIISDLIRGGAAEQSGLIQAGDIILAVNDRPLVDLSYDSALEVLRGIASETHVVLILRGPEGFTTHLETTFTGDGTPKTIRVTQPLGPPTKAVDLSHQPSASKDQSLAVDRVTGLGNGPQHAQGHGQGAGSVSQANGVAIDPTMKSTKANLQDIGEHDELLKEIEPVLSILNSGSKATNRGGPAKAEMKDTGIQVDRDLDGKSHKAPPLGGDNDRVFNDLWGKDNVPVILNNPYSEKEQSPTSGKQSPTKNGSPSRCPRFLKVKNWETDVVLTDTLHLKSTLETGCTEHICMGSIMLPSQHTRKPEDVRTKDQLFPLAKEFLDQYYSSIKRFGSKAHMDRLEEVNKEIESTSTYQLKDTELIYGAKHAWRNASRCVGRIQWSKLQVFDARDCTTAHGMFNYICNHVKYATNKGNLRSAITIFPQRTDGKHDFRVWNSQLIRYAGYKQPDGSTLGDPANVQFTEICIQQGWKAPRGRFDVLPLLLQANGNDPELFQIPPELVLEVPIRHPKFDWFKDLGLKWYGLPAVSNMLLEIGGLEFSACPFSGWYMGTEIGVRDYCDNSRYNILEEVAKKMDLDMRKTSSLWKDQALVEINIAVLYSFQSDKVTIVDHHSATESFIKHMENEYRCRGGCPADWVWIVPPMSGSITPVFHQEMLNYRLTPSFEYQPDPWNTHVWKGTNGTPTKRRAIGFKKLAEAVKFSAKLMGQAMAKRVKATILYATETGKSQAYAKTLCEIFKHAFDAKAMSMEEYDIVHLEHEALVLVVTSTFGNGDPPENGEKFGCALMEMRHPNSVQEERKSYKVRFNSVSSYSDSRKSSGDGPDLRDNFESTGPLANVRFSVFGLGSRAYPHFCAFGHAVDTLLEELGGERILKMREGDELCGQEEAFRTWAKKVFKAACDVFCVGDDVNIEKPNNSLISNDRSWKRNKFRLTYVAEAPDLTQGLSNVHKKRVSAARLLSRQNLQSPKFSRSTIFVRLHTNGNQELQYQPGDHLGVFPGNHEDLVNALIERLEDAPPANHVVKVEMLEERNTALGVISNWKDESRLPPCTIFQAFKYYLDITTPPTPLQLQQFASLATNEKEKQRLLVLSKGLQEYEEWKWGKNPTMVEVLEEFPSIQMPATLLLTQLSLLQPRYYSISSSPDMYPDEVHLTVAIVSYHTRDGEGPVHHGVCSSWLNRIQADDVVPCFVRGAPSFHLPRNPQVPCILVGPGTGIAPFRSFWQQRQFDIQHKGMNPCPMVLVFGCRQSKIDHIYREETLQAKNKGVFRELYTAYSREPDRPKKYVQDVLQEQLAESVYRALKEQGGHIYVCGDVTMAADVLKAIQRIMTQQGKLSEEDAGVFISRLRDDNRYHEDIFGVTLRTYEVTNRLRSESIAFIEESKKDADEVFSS

Nitric oxide synthase 1 (Homo sapiens, UniProt P29475), sequence (P29475 whole entry): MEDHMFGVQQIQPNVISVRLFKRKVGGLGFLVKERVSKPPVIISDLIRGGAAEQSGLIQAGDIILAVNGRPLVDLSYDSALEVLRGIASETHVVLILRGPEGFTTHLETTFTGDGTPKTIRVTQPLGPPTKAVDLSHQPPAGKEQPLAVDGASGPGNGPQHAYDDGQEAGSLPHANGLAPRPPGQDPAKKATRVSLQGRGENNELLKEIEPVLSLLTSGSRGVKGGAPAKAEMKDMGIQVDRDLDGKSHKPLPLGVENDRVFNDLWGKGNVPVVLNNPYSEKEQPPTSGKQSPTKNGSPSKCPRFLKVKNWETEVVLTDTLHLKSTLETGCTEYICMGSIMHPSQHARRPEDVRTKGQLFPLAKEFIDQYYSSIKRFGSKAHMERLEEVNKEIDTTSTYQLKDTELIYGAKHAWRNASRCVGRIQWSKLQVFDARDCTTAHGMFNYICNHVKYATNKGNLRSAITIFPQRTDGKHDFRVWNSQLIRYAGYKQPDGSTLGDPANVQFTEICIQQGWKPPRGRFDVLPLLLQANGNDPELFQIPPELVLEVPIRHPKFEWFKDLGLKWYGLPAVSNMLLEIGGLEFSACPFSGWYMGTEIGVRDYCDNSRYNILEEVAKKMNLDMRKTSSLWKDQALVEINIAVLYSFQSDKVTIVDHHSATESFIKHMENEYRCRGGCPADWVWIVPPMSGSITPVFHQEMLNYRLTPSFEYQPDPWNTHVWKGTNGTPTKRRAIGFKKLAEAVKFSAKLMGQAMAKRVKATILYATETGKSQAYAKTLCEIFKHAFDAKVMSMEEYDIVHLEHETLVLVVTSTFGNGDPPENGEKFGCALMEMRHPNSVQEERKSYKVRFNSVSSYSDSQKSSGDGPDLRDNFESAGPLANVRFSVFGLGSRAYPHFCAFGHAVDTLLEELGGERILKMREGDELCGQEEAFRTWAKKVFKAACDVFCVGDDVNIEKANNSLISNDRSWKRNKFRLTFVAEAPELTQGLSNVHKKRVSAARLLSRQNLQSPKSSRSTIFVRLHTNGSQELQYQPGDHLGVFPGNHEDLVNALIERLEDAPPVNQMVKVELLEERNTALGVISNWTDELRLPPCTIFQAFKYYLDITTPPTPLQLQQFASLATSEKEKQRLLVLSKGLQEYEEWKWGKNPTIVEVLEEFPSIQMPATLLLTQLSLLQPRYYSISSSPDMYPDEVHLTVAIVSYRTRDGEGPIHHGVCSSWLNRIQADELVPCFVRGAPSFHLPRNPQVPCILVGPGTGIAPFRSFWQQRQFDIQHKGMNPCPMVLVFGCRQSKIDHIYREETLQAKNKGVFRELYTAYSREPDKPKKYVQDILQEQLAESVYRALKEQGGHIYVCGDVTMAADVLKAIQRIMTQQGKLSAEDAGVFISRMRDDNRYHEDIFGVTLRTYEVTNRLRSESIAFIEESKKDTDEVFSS

Nc1cccc(C[C@@H]2CNC[C@@H]2OCCNCCc2cccc(F)c2)n1
Ki (Nitric oxide synthase 3): 58 µM
Ki [1]: 10 µM
Ki (Nitric oxide synthase 1 [2]): 0.29 µM
Ki (Nitric oxide synthase 1 [3]): 0.05 µM

Nc1cccc(C[C@H]2CNC[C@H]2OCCNCCc2cccc(F)c2)n1
Ki (Nitric oxide synthase 3): 59 µM
Ki [1]: 13.2 µM
Ki (Nitric oxide synthase 1 [2]): 1.8 µM
Ki (Nitric oxide synthase 1 [3]): 0.22 µM

NC1=NC(C[C@@H]2CNC[C@@H]2OCCNCCc2cccc(F)c2)CCC1 (stereo partly drawn)
Ki (Nitric oxide synthase 3): 58 µM
Ki [1]: 21.8 µM
Ki (Nitric oxide synthase 1 [2]): 0.49 µM
Ki (Nitric oxide synthase 1 [3]): 0.11 µM

Cc1cc(N)nc(C[C@@H]2CNC[C@@H]2OCCNCCc2cccc(F)c2)c1
Ki (Nitric oxide synthase 1 [2]): 0.05 µM
